Measurements from patent US20020137929A1, “1 - (3-heterocyclylphenyl) isothiourea, -isourea, -guanidine and -amidine herbicidal agents” (Intellectual Property Department, BASF Aktiengesellschaft, priority 1998, published 2002).

Columns and labels:
AMBEL (Ragweed, Common) [1] = test: Postemergence herbicidal evaluation; type: in vivo, Ambrosia artemisifolia; conditions: postemergence
Summary of the method: (§1)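 ~2-wk seedlings; postemergence spray, 40 psi; vehicle 1:1 acetone:water + 0.5% Tween 20; rate ≈0.0156–0.500 kg/ha; greenhouse hold; scored 4–5 wk after treatment, 0–9 scale vs control; repeat tests averaged.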

CASOB (Sicklepod) [2] = test: Postemergence herbicidal evaluation; type: in vivo, Cassia obtusifolia; conditions: postemergence
Summary of the method: as §1

[3] = system: CHEAL (Lambsquarters, Common); test: Postemergence herbicidal evaluation; type: in vivo, Chenopodium album; conditions: postemergence
Summary of the method: as §1

[4] = system: IPOHE (Morningglory, Ivyleaf); test: Postemergence herbicidal evaluation; type: in vivo, Ipomoea hederacea; conditions: postemergence
Summary of the method: as §1

ECHCG (Barnyardgrass) = test: Postemergence herbicidal evaluation; type: in vivo, Echinochloa crus-galli; conditions: postemergence
Summary of the method: as §1

[5] = system: GLXMAW (Soybean, Williams); test: Postemergence herbicidal evaluation; type: in vivo, Glycine max, (L.) Merr. cv Williams; conditions: postemergence
Summary of the method: as §1

[6] = system: TRZAWR (Wheat, Winter, cv Riband); test: Postemergence herbicidal evaluation; type: in vivo, Triticum aestivum; conditions: postemergence
Summary of the method: as §1

ABUTH (Velvetleaf) = test: Preemergence herbicidal evaluation; type: in vivo, Abutilon theophrasti; conditions: rated 4-5 weeks after treatment
Summary of the method: (§2)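 Herbicidal effect scored visually, 0-9, at 4 to 5 weeks against a control; compound applied preemergence by aqueous acetone spray to seeded soil at about 0.0156 to 0.500 kg/ha.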

AMBEL (Ragweed, Common) [7] = test: Preemergence herbicidal evaluation; type: in vivo, Ambrosia artemisifolia; conditions: rated 4-5 weeks after treatment
Summary of the method: as §2

CASOB (Sicklepod) [8] = test: Preemergence herbicidal evaluation; type: in vivo, Cassia obtusifolia; conditions: rated 4-5 weeks after treatment
Summary of the method: as §2

[9] = system: CHEAL (Lambsquarters, Common); test: Preemergence herbicidal evaluation; type: in vivo, Chenopodium album; conditions: rated 4-5 weeks after treatment
Summary of the method: as §2

[10] = system: IPOHE (Morningglory, Ivyleaf); test: Preemergence herbicidal evaluation; type: in vivo, Ipomoea hederacea; conditions: rated 4-5 weeks after treatment
Summary of the method: as §2

[11] = system: GLXMAW (Soybean, Williams); test: Preemergence herbicidal evaluation; type: in vivo, Glycine max, (L.) Merr. cv Williams; conditions: rated 4-5 weeks after treatment
Summary of the method: as §2

ORYSAT (Rice, Tebonnet) = test: Preemergence herbicidal evaluation; type: in vivo, Oryza sativa, (L.) Tebonnet; conditions: rated 4-5 weeks after treatment
Summary of the method: as §2

[12] = system: SAGPY (Arrowhead (Pygmaea)); test: Preemergence weed control under flooded paddy conditions; type: in vivo, Sagittaria pygmaea; conditions: rated 3-4 weeks after treatment
Summary of the method: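 Visual injury scored 0-9 against control three to four weeks post-treatment, greenhouse-grown. Application: acetone/water (50/50) solutions dosed directly into flood water (1.5-3 cm over silt loam, planted top 0.5 cm), roughly 0.0313 to 0.500 kg/ha active ingredient.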

COC(=O)[C@@H](Cc1ccccc1)N1C(=O)CSC1=Nc1cc(-n2c(=O)cc(C(F)(F)F)n(C)c2=O)c(F)cc1Cl [Compound 74, Methyl α-benzyl-2-{{2-chloro-5-[3,6-dihydro-3-methyl-2,6-dioxo-4-(trifluoromethyl)-1(2H)-pyrimidinyl]-4-fluorophenyl}imino}-4-oxo-3-thiazolidineacetate, D-]
AMBEL herbicidal rating (AMBEL (Ragweed, Common) [1]; rate 0.0158 kg/ha): 9.0 | AMBEL herbicidal rating (AMBEL (Ragweed, Common) [1]; rate 0.0315 kg/ha): 9.0 | AMBEL herbicidal rating (AMBEL (Ragweed, Common) [1]; rate 0.0630 kg/ha): 9.0 | CASOB herbicidal rating (CASOB (Sicklepod) [2]; rate 0.0158 kg/ha): 3.0 | CASOB herbicidal rating (CASOB (Sicklepod) [2]; rate 0.0315 kg/ha): 4.0 | CASOB herbicidal rating (CASOB (Sicklepod) [2]; rate 0.0630 kg/ha): 9.0 | CHEAL herbicidal rating ([3]; rate 0.0158 kg/ha): 9.0 | CHEAL herbicidal rating ([3]; rate 0.0315 kg/ha): 9.0 | IPOHE herbicidal rating ([4]; rate 0.0158 kg/ha): 9.0 | IPOHE herbicidal rating ([4]; rate 0.0315 kg/ha): 9.0 | IPOHE herbicidal rating ([4]; rate 0.0630 kg/ha): 9.0 | ECHCG herbicidal rating (ECHCG (Barnyardgrass); rate 0.0158 kg/ha): 1.0 | ECHCG herbicidal rating (ECHCG (Barnyardgrass); rate 0.0315 kg/ha): 1.0 | ECHCG herbicidal rating (ECHCG (Barnyardgrass); rate 0.0630 kg/ha): 1.0 | GLXMAW herbicidal rating ([5]; rate 0.0158 kg/ha): 5.5 | GLXMAW herbicidal rating ([5]; rate 0.0315 kg/ha): 5.0 | GLXMAW herbicidal rating ([5]; rate 0.0630 kg/ha): 6.5 | TRZAWR herbicidal rating ([6]; rate 0.0158 kg/ha): 3.5 | TRZAWR herbicidal rating ([6]; rate 0.0315 kg/ha): 4.5 | TRZAWR herbicidal rating ([6]; rate 0.0630 kg/ha): 6.0 | Preemergence herbicidal rating ABUTH (ABUTH (Velvetleaf); rate 0.0156 kg/ha): 0.0 | Preemergence herbicidal rating ABUTH (ABUTH (Velvetleaf); rate 0.0313 kg/ha): 4.0 | Preemergence herbicidal rating ABUTH (ABUTH (Velvetleaf); rate 0.0625 kg/ha): 9.0 | Preemergence herbicidal rating ABUTH (ABUTH (Velvetleaf); rate 0.1250 kg/ha): 9.0 | Preemergence herbicidal rating ABUTH (ABUTH (Velvetleaf); rate 0.2500 kg/ha): 9.0 | Preemergence herbicidal rating AMBEL (AMBEL (Ragweed, Common) [7]; rate 0.0156 kg/ha): 0.0 | Preemergence herbicidal rating AMBEL (AMBEL (Ragweed, Common) [7]; rate 0.0313 kg/ha): 1.0 | Preemergence herbicidal rating AMBEL (AMBEL (Ragweed, Common) [7]; rate 0.0625 kg/ha): 3.0 | Preemergence herbicidal rating AMBEL (AMBEL (Ragweed, Common) [7]; rate 0.1250 kg/ha): 9.0 | Preemergence herbicidal rating AMBEL (AMBEL (Ragweed, Common) [7]; rate 0.2500 kg/ha): 9.0 | Preemergence herbicidal rating CASOB (CASOB (Sicklepod) [8]; rate 0.0156 kg/ha): 0.0 | Preemergence herbicidal rating CASOB (CASOB (Sicklepod) [8]; rate 0.0313 kg/ha): 0.0 | Preemergence herbicidal rating CASOB (CASOB (Sicklepod) [8]; rate 0.0625 kg/ha): 0.0 | Preemergence herbicidal rating CASOB (CASOB (Sicklepod) [8]; rate 0.1250 kg/ha): 0.0 | Preemergence herbicidal rating CASOB (CASOB (Sicklepod) [8]; rate 0.2500 kg/ha): 0.0 | Preemergence herbicidal rating CHEAL ([9]; rate 0.0156 kg/ha): 9.0 | Preemergence herbicidal rating CHEAL ([9]; rate 0.0313 kg/ha): 9.0 | Preemergence herbicidal rating CHEAL ([9]; rate 0.0625 kg/ha): 9.0 | Preemergence herbicidal rating CHEAL ([9]; rate 0.1250 kg/ha): 9.0 | Preemergence herbicidal rating CHEAL ([9]; rate 0.2500 kg/ha): 9.0 | Preemergence herbicidal rating IPOHE ([10]; rate 0.0156 kg/ha): 0.0 | Preemergence herbicidal rating IPOHE ([10]; rate 0.0625 kg/ha): 1.0 | Preemergence herbicidal rating IPOHE ([10]; rate 0.1250 kg/ha): 0.0 | Preemergence herbicidal rating IPOHE ([10]; rate 0.2500 kg/ha): 1.0 | Preemergence herbicidal rating GLXMAW ([11]; rate 0.0156 kg/ha): 0.0 | Preemergence herbicidal rating GLXMAW ([11]; rate 0.0313 kg/ha): 1.0 | Preemergence herbicidal rating GLXMAW ([11]; rate 0.0625 kg/ha): 0.0 | Preemergence herbicidal rating GLXMAW ([11]; rate 0.1250 kg/ha): 1.0 | Preemergence herbicidal rating GLXMAW ([11]; rate 0.2500 kg/ha): 1.0 | Preemergence herbicidal rating ORYSAT (ORYSAT (Rice, Tebonnet); rate 0.0156 kg/ha): 0.0 | Preemergence herbicidal rating ORYSAT (ORYSAT (Rice, Tebonnet); rate 0.0313 kg/ha): 0.0 | Preemergence herbicidal rating ORYSAT (ORYSAT (Rice, Tebonnet); rate 0.0625 kg/ha): 1.0 | Preemergence herbicidal rating ORYSAT (ORYSAT (Rice, Tebonnet); rate 0.1250 kg/ha): 1.0 | Preemergence herbicidal rating ORYSAT (ORYSAT (Rice, Tebonnet); rate 0.2500 kg/ha): 1.0 | SAGPY herbicidal effect rating ([12]; 0.0313 kg/ha): 3.0 | SAGPY herbicidal effect rating ([12]; 0.0625 kg/ha): 3.0 | SAGPY herbicidal effect rating ([12]; 0.1250 kg/ha): 3.0 | SAGPY herbicidal effect rating ([12]; 0.2500 kg/ha): 9.0
